Measurements published in ChEMBL document CHEMBL2203205 (Eur J Med Chem, 2012).

Key:
[1] = target: Nitric oxide synthase, inducible (Homo sapiens, UniProt P35228); experiment: Inhibition of recombinant human iNOS expressed in baculovirus-infected Sf9 cells assessed as conversion of [3H]-larginine to [3H]-L-citrulline preincubated for 15 mins measured after 45 mins by liquid scintillation counting
[2] = target: Nitric oxide synthase 3 (Homo sapiens, UniProt P29474); experiment: Inhibition of recombinant human eNOS expressed in baculovirus-infected Sf9 cells assessed as conversion of [3H]-larginine to [3H]-L-citrulline preincubated for 15 mins measured after 45 mins by liquid scintillation counting
Chain of Nitric oxide synthase 3 (P29474 whole entry, looked up): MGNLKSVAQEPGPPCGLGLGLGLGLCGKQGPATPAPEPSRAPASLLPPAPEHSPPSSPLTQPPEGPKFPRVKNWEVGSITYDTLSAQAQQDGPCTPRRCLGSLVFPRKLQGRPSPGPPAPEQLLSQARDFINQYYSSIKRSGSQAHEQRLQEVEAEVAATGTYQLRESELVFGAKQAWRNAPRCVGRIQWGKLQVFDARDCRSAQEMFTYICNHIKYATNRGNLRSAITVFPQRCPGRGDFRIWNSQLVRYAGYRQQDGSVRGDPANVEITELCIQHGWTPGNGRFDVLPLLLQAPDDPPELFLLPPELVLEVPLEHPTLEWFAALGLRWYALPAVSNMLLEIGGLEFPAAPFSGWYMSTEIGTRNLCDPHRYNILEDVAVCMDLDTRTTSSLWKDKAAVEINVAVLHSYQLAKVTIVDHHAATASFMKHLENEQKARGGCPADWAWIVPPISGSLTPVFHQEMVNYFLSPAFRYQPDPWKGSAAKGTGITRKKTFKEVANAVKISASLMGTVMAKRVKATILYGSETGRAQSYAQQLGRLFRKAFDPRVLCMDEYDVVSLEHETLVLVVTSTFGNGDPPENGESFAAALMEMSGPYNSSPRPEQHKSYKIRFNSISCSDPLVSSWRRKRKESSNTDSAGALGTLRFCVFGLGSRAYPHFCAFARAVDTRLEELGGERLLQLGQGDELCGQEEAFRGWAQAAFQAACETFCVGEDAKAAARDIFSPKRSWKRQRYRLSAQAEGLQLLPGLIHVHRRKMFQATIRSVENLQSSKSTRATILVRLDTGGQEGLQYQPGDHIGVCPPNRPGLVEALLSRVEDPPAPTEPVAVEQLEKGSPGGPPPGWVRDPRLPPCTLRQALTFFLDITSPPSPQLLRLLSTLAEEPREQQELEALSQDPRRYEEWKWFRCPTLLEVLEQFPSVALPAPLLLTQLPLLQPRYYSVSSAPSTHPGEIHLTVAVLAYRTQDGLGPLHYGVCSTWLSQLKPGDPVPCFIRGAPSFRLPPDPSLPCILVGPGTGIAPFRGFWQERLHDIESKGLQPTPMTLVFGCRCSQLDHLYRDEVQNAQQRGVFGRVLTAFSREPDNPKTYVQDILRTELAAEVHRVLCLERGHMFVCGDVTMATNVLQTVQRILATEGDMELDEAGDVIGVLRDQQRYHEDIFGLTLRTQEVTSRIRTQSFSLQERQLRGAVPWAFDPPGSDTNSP

[3] = target: Nitric oxide synthase 1 (Homo sapiens, UniProt P29475); experiment: Inhibition of recombinant human nNOS expressed in baculovirus-infected Sf9 cells assessed as conversion of [3H]-larginine to [3H]-L-citrulline preincubated for 15 mins measured after 45 mins by liquid scintillation counting
Chain of Nitric oxide synthase 1 (P29475 whole entry): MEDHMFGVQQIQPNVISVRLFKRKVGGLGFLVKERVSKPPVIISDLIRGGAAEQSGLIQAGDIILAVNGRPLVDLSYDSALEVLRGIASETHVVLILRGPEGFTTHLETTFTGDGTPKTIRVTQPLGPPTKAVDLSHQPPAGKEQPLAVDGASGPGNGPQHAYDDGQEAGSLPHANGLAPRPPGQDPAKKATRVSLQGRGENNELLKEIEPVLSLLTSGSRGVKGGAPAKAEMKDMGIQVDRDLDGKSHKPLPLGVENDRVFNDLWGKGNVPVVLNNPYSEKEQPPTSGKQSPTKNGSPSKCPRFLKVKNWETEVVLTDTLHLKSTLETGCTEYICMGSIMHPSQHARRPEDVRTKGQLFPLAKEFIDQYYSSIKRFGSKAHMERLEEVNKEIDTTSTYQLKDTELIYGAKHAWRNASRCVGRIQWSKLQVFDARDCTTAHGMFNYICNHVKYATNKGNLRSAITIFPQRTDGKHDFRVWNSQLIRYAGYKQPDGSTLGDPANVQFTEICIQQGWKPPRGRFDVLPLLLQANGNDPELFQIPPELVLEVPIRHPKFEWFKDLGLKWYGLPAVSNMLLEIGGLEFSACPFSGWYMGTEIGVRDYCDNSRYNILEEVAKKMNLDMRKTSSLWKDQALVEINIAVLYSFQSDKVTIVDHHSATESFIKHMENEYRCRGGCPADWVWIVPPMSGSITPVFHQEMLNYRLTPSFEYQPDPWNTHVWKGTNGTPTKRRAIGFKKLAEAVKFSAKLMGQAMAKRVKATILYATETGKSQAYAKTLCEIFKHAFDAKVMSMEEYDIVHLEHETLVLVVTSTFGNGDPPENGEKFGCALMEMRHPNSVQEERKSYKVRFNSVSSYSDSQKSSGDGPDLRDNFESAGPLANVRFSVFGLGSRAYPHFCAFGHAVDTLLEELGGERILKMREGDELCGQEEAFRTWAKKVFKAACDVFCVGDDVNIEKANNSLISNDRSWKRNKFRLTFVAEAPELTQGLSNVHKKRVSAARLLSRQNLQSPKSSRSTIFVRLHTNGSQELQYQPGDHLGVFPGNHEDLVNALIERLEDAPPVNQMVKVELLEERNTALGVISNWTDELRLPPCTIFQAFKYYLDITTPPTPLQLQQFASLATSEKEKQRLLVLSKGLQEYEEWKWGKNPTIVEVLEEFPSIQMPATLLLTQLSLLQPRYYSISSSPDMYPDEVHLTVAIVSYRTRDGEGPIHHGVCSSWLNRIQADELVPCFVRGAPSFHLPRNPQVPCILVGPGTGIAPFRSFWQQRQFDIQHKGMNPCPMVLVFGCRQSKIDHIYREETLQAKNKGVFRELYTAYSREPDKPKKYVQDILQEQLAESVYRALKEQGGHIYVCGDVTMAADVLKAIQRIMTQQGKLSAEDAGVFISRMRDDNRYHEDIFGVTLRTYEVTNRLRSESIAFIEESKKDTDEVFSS

[4] = target: Substance-P receptor (Homo sapiens) (UniProt P25103); details: U-373MG ATCC
Chain of Substance-P receptor (Homo sapiens) (P25103 whole entry): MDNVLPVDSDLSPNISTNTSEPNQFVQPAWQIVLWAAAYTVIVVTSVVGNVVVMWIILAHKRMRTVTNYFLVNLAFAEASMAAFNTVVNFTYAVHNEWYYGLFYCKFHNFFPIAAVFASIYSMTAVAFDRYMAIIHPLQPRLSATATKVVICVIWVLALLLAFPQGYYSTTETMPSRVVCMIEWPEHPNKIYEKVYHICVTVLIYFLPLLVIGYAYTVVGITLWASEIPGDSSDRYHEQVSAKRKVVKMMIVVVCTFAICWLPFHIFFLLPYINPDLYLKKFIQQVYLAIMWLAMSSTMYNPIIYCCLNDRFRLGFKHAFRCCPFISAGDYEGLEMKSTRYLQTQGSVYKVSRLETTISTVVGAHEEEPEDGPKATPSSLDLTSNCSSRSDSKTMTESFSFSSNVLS
Description: Displacement of [125I]BH-SP from NK1 receptor in human U-373MG cells at 10 uM after 60 mins

Chain of Nitric oxide synthase, inducible (P35228 whole entry, looked up): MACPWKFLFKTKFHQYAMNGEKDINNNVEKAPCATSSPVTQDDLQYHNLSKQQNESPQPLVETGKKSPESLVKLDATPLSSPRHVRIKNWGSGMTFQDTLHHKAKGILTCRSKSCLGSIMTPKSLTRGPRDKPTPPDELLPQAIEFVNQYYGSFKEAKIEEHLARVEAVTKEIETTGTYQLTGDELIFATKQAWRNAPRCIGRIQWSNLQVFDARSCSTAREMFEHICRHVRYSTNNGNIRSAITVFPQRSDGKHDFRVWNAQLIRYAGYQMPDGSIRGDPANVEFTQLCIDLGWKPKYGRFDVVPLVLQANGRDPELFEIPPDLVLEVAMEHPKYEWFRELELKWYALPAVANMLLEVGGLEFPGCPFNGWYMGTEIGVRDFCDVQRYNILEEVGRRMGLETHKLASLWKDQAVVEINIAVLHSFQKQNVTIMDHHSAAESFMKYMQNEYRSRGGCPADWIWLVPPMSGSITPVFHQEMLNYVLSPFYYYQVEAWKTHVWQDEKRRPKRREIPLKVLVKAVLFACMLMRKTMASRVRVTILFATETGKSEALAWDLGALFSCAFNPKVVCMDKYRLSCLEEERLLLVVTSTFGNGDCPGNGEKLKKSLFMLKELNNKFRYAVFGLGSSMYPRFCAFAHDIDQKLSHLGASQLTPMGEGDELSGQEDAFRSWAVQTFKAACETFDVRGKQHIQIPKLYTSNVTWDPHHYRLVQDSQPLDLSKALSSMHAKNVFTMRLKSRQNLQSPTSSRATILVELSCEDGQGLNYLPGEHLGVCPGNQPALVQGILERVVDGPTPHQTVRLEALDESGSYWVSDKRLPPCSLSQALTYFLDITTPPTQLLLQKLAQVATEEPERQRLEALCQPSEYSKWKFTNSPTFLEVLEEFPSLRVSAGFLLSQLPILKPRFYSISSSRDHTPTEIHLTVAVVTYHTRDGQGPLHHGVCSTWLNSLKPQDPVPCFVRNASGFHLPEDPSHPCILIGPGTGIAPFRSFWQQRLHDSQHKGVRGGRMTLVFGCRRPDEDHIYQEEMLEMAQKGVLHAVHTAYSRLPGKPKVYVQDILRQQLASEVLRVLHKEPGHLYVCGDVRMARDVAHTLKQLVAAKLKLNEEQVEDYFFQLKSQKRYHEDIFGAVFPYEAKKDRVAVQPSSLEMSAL

SMILES	IC50 [1]	IC50 [2]	IC50 [3]	inhibition [4]
N=C(Nc1ccc2c(c1)CCN2C(=O)CN1CCCC1)c1cccs1	0.77 µM	10.5 µM	0.62 µM	–
CNC1CCC(N2CCc3cc(NC(=N)c4cccs4)ccc32)CC1 (cis isomer)	4.08 µM	–	0.2 µM	–
CNC1CCC(N2CCc3cc(NC(=N)c4cccs4)ccc32)CC1 (trans isomer)	4.87 µM	–	0.1 µM	–
N=C(Nc1ccc2c(c1)CCN2CCNCCO)c1cccs1	–	10.1 µM	0.35 µM	–
N=C(Nc1ccc2c(c1)CCN2C1CCNCC1)c1cccs1 [listing 2 of 2 here]	–	–	–	12%
CC1CC(N2CCc3cc(NC(=N)c4cccs4)ccc32)CCN1 (trans isomer)	4.75 µM	36.7 µM	0.37 µM	–

More lines, in order of falling IC50 [3], values ahead:

IC50 [1]	IC50 [2]	IC50 [3]	inhibition [4]	SMILES
1.8 µM	51.7 µM	0.91 µM	–	CC1CC(N2CCc3cc(NC(=N)c4cccs4)ccc32)CCN1 (single isomer, unassigned; (+))
1.09 µM	53.7 µM	0.71 µM	–	CC1CC(N2CCc3cc(NC(=N)c4cccs4)ccc32)CCN1 (stereo in doubt)
1.17 µM	124 µM	0.69 µM	–	CC1CC(N2CCc3cc(NC(=N)c4cccs4)ccc32)CCN1 (cis isomer)
52.2 µM	94 µM	0.33 µM	–	N=C(Nc1ccc2c(c1)CCN2C1CCCNC1)c1cccs1 (racemic)
4.67 µM	58.2 µM	0.2 µM	–	CN1CCC(N2CCc3cc(NC(=N)c4cccs4)ccc32)CC1
1.58 µM	39.3 µM	0.16 µM	–	N=C(Nc1ccc2c(c1)CCN2C1CCN(CCO)CC1)c1cccs1
0.41 µM	37.3 µM	0.12 µM	–	N=C(Nc1ccc2c(c1)CCN2CCN1CCCC1)c1cccs1
415 µM	40.5 µM	0.11 µM	–	N=C(Nc1ccc2c(c1)CCN2C1CCNCC1)c1cccs1 [listing 1 of 2 here]
4.07 µM	11.4 µM	0.04 µM	–	CN(C)CCN1CCc2cc(NC(=N)c3cccs3)ccc21
